# Read-outs that look alike come from different tables or passages of the source.
# Key:
# Mycobacterium abscessus [1] = test: MIC by broth dilution (CLSI M24), resazurin readout; assay type: cell-based; details: Mycobacteroides abscessus; M.abscessess
# Mycobacterium abscessus [2] = test: Minimum Bactericidal Concentration (MBC); assay type: cell-based; details: Mycobacteroides abscessus; M.abscessess
# [3] = test system: M. abscessus in THP-1 macrophages; test: Intracellular efficacy in THP-1 macrophages; assay type: cell-based, Mycobacterium abscessus; details: M.abscessess in THP-1 macrophages
# Protocol: (§1) To test drug efficacy against slow or non-replicating bacilli in the intracellular compartment, THP-1 cells were grown in RPMI medium supplemented with […] sodium pyruvate, 200 mM L-glutamine, 3.7 g of sodium bicarbonate (Sigma) per litre, and 10% foetal calf serum (Gibco-BRL Life Technologies) without any antibiotics. The macrophages were seeded in 96-well plates at a density of approximately 5×10^5 cells/flask, incubated overnight, and were induced by 50 nM phorbol 12-myristate 13-acetate (PMA) to achieve macrophage differentiated phenotypesat 37° C./48-72 hr/5% CO2 atmosphere. After 48 hr of activation, the THP-1 macrophages were infected with respective NTM strains at a multiplicity of infection (MOI) of 1:10/2 h at 37° C. with 5% CO2. The macrophage monolayers were washed twice with […] of phosphate-buffered saline (+Ca^2++Mg^2+) to remove the free bacteria. Sets of triplicate wells were lysed (0.05% SDS) at specific timepoints, and enumerated to estimate the numbers of intracellular NTM 2 h post-infection.
# (§2) The residual intracellular viable mycobacteria were enumerated at 0, 3, 5, and 7 day on Middlebrook 7H11 agar plates. […] Inhibitory sigmoidal curves were generated by plotting the log10 cfu/ml against the Cbroth/MIC ratio and the AUC/MIC ratio.
# Mycobacterium avium [4] = test: MIC by broth dilution (CLSI M24), resazurin readout; assay type: cell-based; details: M.avium
# Mycobacterium avium [5] = test: Minimum Bactericidal Concentration (MBC); assay type: cell-based; details: M.avium
# [6] = test system: M. avium in THP-1 macrophages; test: Intracellular efficacy in THP-1 macrophages; assay type: cell-based, Mycobacterium avium
# Protocol: as §1, §2
# Mycobacterium fortuitum [7] = test: MIC by broth dilution (CLSI M24), resazurin readout; assay type: cell-based; details: Mycolicibacterium fortuitum; M.fortuitum
# Mycobacterium fortuitum [8] = test: Minimum Bactericidal Concentration (MBC); assay type: cell-based; details: Mycolicibacterium fortuitum; M.fortuitum
# [9] = test system: M. fortuitum in THP-1 macrophages; test: Intracellular efficacy in THP-1 macrophages; assay type: cell-based, Mycobacterium fortuitum
# Protocol: as §1, §2
# Mycobacterium gordonae [10] = test: MIC by broth dilution (CLSI M24), resazurin readout; assay type: cell-based; details: M.gordonae
# Mycobacterium gordonae [11] = test: Minimum Bactericidal Concentration (MBC); assay type: cell-based; details: M.gordonae
# [12] = test system: M. gordonae in THP-1 macrophages; test: Intracellular efficacy in THP-1 macrophages; assay type: cell-based, Mycobacterium gordonae
# Protocol: as §1, §2
# [13] = test system: Mycobacterium intracellulare; test: MIC by broth dilution (CLSI M24), resazurin readout; assay type: cell-based; details: M.intracellulare
# [14] = test system: Mycobacterium intracellulare; test: Minimum Bactericidal Concentration (MBC); assay type: cell-based; details: M.intracellulare
# [15] = test system: M. intracellulare in THP-1 macrophages; test: Intracellular efficacy in THP-1 macrophages; assay type: cell-based, Mycobacterium intracellulare
# Protocol: as §1, §2
# Mycobacterium kansasii [16] = test: MIC by broth dilution (CLSI M24), resazurin readout; assay type: cell-based; details: M.kansasii
# Mycobacterium kansasii [17] = test: Minimum Bactericidal Concentration (MBC); assay type: cell-based; details: M.kansasii
# [18] = test system: M. kansasii in THP-1 macrophages; test: Intracellular efficacy in THP-1 macrophages; assay type: cell-based, Mycobacterium kansasii
# Protocol: as §1, §2
# [19] = test system: Mycobacterium nonchromogenicum; test: MIC by broth dilution (CLSI M24), resazurin readout; assay type: cell-based; details: Mycolicibacter nonchromogenicus
# [20] = test system: Mycobacterium nonchromogenicum; test: Minimum Bactericidal Concentration (MBC); assay type: cell-based; details: Mycolicibacter nonchromogenicus
# [21] = test system: M. nonchromogenicum in THP-1 macrophages; test: Intracellular efficacy in THP-1 macrophages; assay type: cell-based, Mycobacterium nonchromogenicum
# Protocol: as §1, §2
# M. avium = test: In vitro drug combination study, checkerboard method; assay type: cell-based, Mycobacterium avium; details: for MIC: Mycobacterium avium, 144 h, drug alone, checkerboard, read-out: Individual MIC; for FIC index / Outcome: in combination with PM181108A
# M. gordonae = test: as above; assay type: cell-based, Mycobacterium gordonae; details: for MIC: Mycobacterium gordonae, 144 h, drug alone, checkerboard, read-out: Individual MIC; for FIC index / Outcome: in combination with PM181108A
# [22] = M.nonchromogenicum, read-out: MIC
# [23] = M.nonchromogenicum, read-out: MBC
Compound,MIC (Mycobacterium abscessus [1]),MBC (Mycobacterium abscessus [2]),IC Emax (intracellular efficacy) [3],MIC (Mycobacterium avium [4]),MBC (Mycobacterium avium [5]),IC Emax (intracellular efficacy) [6],MIC (Mycobacterium fortuitum [7]),MBC (Mycobacterium fortuitum [8]),IC Emax (intracellular efficacy) [9],MIC (Mycobacterium gordonae [10]),MBC (Mycobacterium gordonae [11]),IC Emax (intracellular efficacy) [12],MIC [13],MBC [14],IC Emax (intracellular efficacy) [15],MIC (Mycobacterium kansasii [16]),MBC (Mycobacterium kansasii [17]),IC Emax (intracellular efficacy) [18],MIC [19],IC Emax (intracellular efficacy) [21],further results
COc1c(N2C[C@@H]3CCCN[C@@H]3C2)c(F)cc2c(=O)c(C(=O)O)cn(C3CC3)c12 [Moxifloxacin],2 µg/mL,4 µg/mL,1.00 log10 cfu/ml,4 µg/mL,8 µg/mL,1.00 log10 cfu/ml,< 0.06 µg/mL,0.25 µg/mL,1.60 log10 cfu/ml,2 µg/mL,4 µg/mL,1.23 log10 cfu/ml,0.5 µg/mL,1 µg/mL,1.46 log10 cfu/ml,2 µg/mL,8 µg/mL,1.93 log10 cfu/ml,2 µg/mL,0.34 log10 cfu/ml,MBC [20]: 16 µg/mL
NCC[C@H](O)C(=O)N[C@@H]1C[C@H](N)[C@@H](O[C@H]2O[C@H](CN)[C@@H](O)[C@H](O)[C@H]2O)[C@H](O)[C@H]1O[C@H]1O[C@H](CO)[C@@H](O)[C@H](N)[C@H]1O [Amikacin],4 µg/mL,16 µg/mL,,2 µg/mL,8 µg/mL,,2 µg/mL,2 µg/mL,,2 µg/mL,8 µg/mL,,1 µg/mL,2 µg/mL,,4 µg/mL,16 µg/mL,,2 µg/mL,,"MBC [20]: 8 µg/mL; MIC (M. avium): 4 µg/mL; FIC index (M. avium): 0.80; Outcome (M. avium): Additive (>0.5-4.0, addition or indifference); MIC (M. gordonae): 4 µg/mL; FIC index (M. gordonae): 0.90; Outcome (M. gordonae): Additive (>0.5-4.0, addition or indifference)"
CO[C@H]1/C=C/O[C@@]2(C)Oc3c(C)c(O)c4c(O)c(c(/C=N/N5CCN(C)CC5)c(O)c4c3C2=O)NC(=O)/C(C)=C\C=C\[C@H](C)[C@H](O)[C@@H](C)[C@@H](O)[C@@H](C)[C@H](OC(C)=O)[C@@H]1C [Rifampicin],16 µg/mL,32 µg/mL,0.00 log10 cfu/ml,0.25 µg/mL,1 µg/mL,1.04 log10 cfu/ml,4 µg/mL,> 32 µg/mL,0.00 log10 cfu/ml,0.25 µg/mL,8 µg/mL,1.36 log10 cfu/ml,0.06 µg/mL,0.25 µg/mL,0.44 log10 cfu/ml,0.13 µg/mL,16 µg/mL,,,0.82 log10 cfu/ml,"MIC [19, 22]: 0.13 µg/mL; MBC [20, 23]: 32 µg/mL; MIC (M. avium): 0.5 µg/mL; Outcome (M. avium): Additive (>0.5-4.0, addition or indifference); MIC (M. gordonae): 0.5 µg/mL; Outcome (M. gordonae): Synergy (≤0.5, synergism)"
CC[C@H]1OC(=O)[C@H](C)[C@@H](O[C@H]2C[C@@](C)(OC)[C@@H](O)[C@H](C)O2)[C@H](C)[C@@H](O[C@@H]2O[C@H](C)C[C@H](N(C)C)[C@H]2O)[C@](C)(OC)C[C@@H](C)C(=O)[C@H](C)[C@@H](O)[C@]1(C)O [Clarithromycin],2 µg/mL,32 µg/mL,0.70 log10 cfu/ml,0.5 µg/mL,2 µg/mL,1.00 log10 cfu/ml,32 µg/mL,> 32 µg/mL,0.35 log10 cfu/ml,0.5 µg/mL,1 µg/mL,1.26 log10 cfu/ml,0.13 µg/mL,0.5 µg/mL,1.78 log10 cfu/ml,0.5 µg/mL,2 µg/mL,0.91 log10 cfu/ml,0.25 µg/mL,0.82 log10 cfu/ml,"MBC [20]: 4 µg/mL; MIC (M. avium): 1 µg/mL; FIC index (M. avium): 0.46; Outcome (M. avium): Synergy (≤0.5, synergism); MIC (M. gordonae): 1 µg/mL; FIC index (M. gordonae): 0.46; Outcome (M. gordonae): Synergy (≤0.5, synergism)"
C=C(NC(=O)C(=C)NC(=O)c1csc(C2=N[C@@H]3c4csc(n4)[C@H]4NC(=O)c5csc(n5)[C@H]([C@](C)(O)[C@@H](C)O)NC(=O)[C@H]5CSC(=N5)/C(=C/C)NC(=O)[C@H]([C@@H](C)O)NC(=O)c5csc(n5)[C@]3(CC2)NC(=O)[C@H](C)NC(=O)C(=C)NC(=O)[C@H](C)NC(=O)[C@H]([C@@H](C)CC)N[C@@H]2C=Cc3c([C@H](C)O)cc(nc3[C@H]2O)C(=O)O[C@@H]4C)n1)C(N)=O [Thiostrepton],0.5 µg/mL,32 µg/mL,0.00 log10 cfu/ml,1 µg/mL,2 µg/mL,1.19 log10 cfu/ml,2 µg/mL,> 32 µg/mL,0.00 log10 cfu/ml,0.5 µg/mL,2 µg/mL,0.72 log10 cfu/ml,0.13 µg/mL,1 µg/mL,0.67 log10 cfu/ml,1 µg/mL,16 µg/mL,1.56 log10 cfu/ml,,0.49 log10 cfu/ml,"MIC [19, 22]: 0.5 µg/mL; MBC [20, 23]: 16 µg/mL"
